Patent US4849441A, “Isoindolin-1-one derivative and antiarrhythmic agent” (Kyowa Hakko Kogyo Co., Ltd., priority 1986, dated 1989)

Key:
[1] = test system: chloroform-induced arrhythmia in mice; experiment: Mice chloroform-induced arrhythmia test; format: in vivo, mice of dd strain; conditions: oral administration, effective if < 720 pulses/min, Probit method; for ED50: Mus musculus, po, read-out: Antiarrhythmic Activity A: chloroform induced arrhythmia in mice (ED50)
Description: The antiarrhythmic activity was examined by arrhythmia test induced with chloroform in mice and by arrhythmia test induced by ligation of dog coronary artery. (A) Mice chloroform-induced arrhythmia test: Using mice of dd strain, weighing 18 to 22 g and fasting and abstaining from water for 4 to 5 hours, an antiarrhythmic effect was evaluated in accordance with the method of Block [Life Science, 28, 2623 (1981)]. That is, after orally administrating each compound, the mice were put in a chloroform atmosphere and taken out after respiratory standstill. Electrocardiogram was measured by the standard limb induction method; in the case when frequent pulse exceeding 720 pulses/min. is continued for 30 seconds or longer, it was judged ineffective and in the case of a heart beat number being less than 720 pulses/min., it was judged effective. ED50 was determined by the Probit method.

[2] = test system: dd, male mice; experiment: Acute toxicity test (mortality 7 days after administration); format: in vivo; conditions: mortality at 7 days, minimum lethal dosage
Description: Groups each consisting of three dd, male mice having body weights of 20±1 g were used, and the compound of the present invention was intraperitoneally administered. Mortality 7 days after the administration was observed and the minimum lethal dosage (MLD) was determined.

[3] = test system: dd, male mice; experiment: as above; format: in vivo; conditions: mortality at 7 days, minimum lethal dosage; remark: listed apart in the source
[4] = test system: coronary artery ligation-induced arrhythmia in dog; experiment: Dog coronary artery ligation-induced arrhythmia test; format: in vivo, dogs; conditions: Canis lupus familiaris, intravenous, 16 h after ligation, effective if 50% or more of total pulses restored to sinus rhythm, dose effective in 50% or more cases, read-out: Antiarrhythmic Activity B: coronary artery ligation induced arrhythmia in dog (MED)
From the text: The antiarrhythmic activity was examined by arrhythmia test induced with chloroform in mice and by arrhythmia test induced by ligation of dog coronary artery.
(B) Dog coronary artery ligation-induced arrhythmia test:
Using dogs weighing 7 to 12 kg, coronary artery ligation-induced arryhthmia occurred in accordance with the Harris method [Circulation, 1, 1318 (1950)]. Namely, the left fifth costa was subjected to thoraco-laparotomy.After the pericardium was incised, the left fore descending branch of the coronary artery was exfoliated around the first side branch and ligated. Sixteen hours after, a test compound was intravenously administered to dogs with multiple ventricular arrhythmic pulses being 90% or more than the total pulses. Then, electrocardiogram was recorded without anesthesia under free movement, and a case where 50% or more of the total pulses was restored to sinus rhythm was judged effective.

SMILES	ED50 [1] [mg/kg]	Acute Toxicity (MLD) i.p. [2] [mg/kg]	Acute Toxicity (MLD) p.o. [3] [mg/kg]	minimal effective dose [4] [mg/kg]	Antiarrhythmic Activity A: chloroform induced arrhythmia in mice (ED50) [1] [mg/kg]
CCN(CC)CCN1C(=O)c2ccccc2C1c1cc(C)cc(C)c1N (stereo not drawn) [Compound 26, 3-(2-Amino-3,5-dimethylphenyl)-2-(2-diethylaminoethyl)-isoindolin-1-one]	< 25	100	200	–	–
CCN(CC)CCN1C(=O)c2ccccc2C1c1ccccc1N (stereo not drawn) [Compound 1, 3-(2-Aminophenyl)-2-(2-diethylaminoethyl)isoindolin-1-one]	33	> 100	> 300	1.25	–
CCN1CCCC1CN1C(=O)c2ccccc2C1c1cc(C#N)ccc1N (stereo not drawn) [Compound 35]	50 to 100	> 100	> 300	–	–
CCN(CC)CCN1C(=O)c2ccccc2C1c1ccccc1NC (stereo not drawn) [Compound 7, 2-(2-Diethylaminoethyl)-3-(2-methylaminophenyl)isoindolin-1-one]	14	50	50	> 2.5	–
CCN(CC)CCN1C(=O)c2ccccc2C1c1cc(F)ccc1N (stereo not drawn) [Compound 32, 3-(2-Amino-5-fluorophenyl)-2-(2-diethylaminoethyl)-isoindolin-1-one]	25 to 50	> 100	300	–	–
CC(C)NCCN1C(=O)c2ccccc2C1c1cc(C#N)ccc1N (stereo not drawn) [Compound 36, 3-(2-Amino-5-cyanophenyl)-2-(2-isopropylaminoethyl)-isoindolin-1-one]	50 to 100	> 100	> 300	–	–
CC(C)NCCN1C(=O)c2ccccc2C1c1ccccc1N (stereo not drawn) [Compound 6, 3-(2-Aminophenyl)-2-(2-isopropylaminoethyl)isoindolin-1-one]	36	> 100	300	2.5	–
CCN(CC)CCN1C(=O)c2ccccc2C1c1c(C)ccc(C)c1N (stereo not drawn) [Compound 17, 3-(2-Amino-3,6-dimethylphenyl)-2-(2-diethylaminoethyl)-isoindolin-1-one]	< 25	> 100	300	–	–
CN(C)CCCN1C(=O)c2ccccc2C1c1ccccc1N (stereo not drawn) [Compound 2]	> 100	> 100	> 300	5	–
CCN(CC)CCN1C(=O)c2ccccc2C1c1ccc(N(C)C)cc1 (stereo not drawn) [Compound 18, 2-(2-Diethylaminoethyl)-3-(4-dimethylaminophenyl)-isoindolin-1-one]	23	50	100	2.5	–
CCN(CC)CCN1C(=O)c2ccccc2C1c1cccc(C(C)C)c1N (stereo not drawn) [Compound 33, 3-(2-Amino-3-isopropylphenyl)-2-(2-diethylaminoethyl)-isoindolin-1-one]	14	50	100	–	–
CCNc1ccccc1C1c2ccccc2C(=O)N1CCN(CC)CC (stereo not drawn) [Compound 9, 2-(2-Diethylaminoethyl)-3-(2-ethylaminophenyl)isoindolin-1-one]	63	> 100	200	> 5	–
CCN(CC)CCN1C(=O)c2ccccc2C1c1cc(C#N)ccc1N (stereo not drawn) [Compound 31, 3-(2-Amino-5-cyanophenyl)-2-(2-diethylaminoethyl)-isoindolin-1-one]	30	–	–	2.5	19
CCN(CC)CCCN1C(=O)c2ccccc2C1c1ccccc1N (stereo not drawn) [Compound 3, 3-(2-Aminophenyl)-2-(3-diethylaminopropyl)isoindolin-1-one]	< 100	> 100	100	2.5	–
CCNCCN1C(=O)c2ccccc2C1c1cc(C#N)ccc1N (stereo not drawn) [Compound 38, 3-(2-Amino-5-cyanophenyl)-2-(2-ethylaminoethyl)-isoindolin-1-one]	50	> 100	> 300	5	–
CCCCN(CCCC)CCCN1C(=O)c2ccccc2C1c1ccccc1N (stereo not drawn) [Compound 5, 2-(3-dibutylaminopropyl)-3-(2-aminophenyl)isoindolin-1-one]	35	25	100	1.25	–
CCN(CC)CCN1C(=O)c2ccccc2C1c1cc(Cl)ccc1N (stereo not drawn) [Compound 11, 3-(2-Amino-5-chlorophenyl)-2-(2-diethylaminoethyl)-isoindolin-1-one]	> 100	> 100	> 300	5	–
CCN(CC)CCN1C(=O)c2ccccc2C1c1ccccc1N(C)C (stereo not drawn) [Compound 8, 2-(2-Diethylaminoethyl)-3-(2-dimethylaminophenyl)isoindolin-1-one]	36	50	100	2.5	–
CCN(CC)CCCCN1C(=O)c2ccccc2C1c1ccccc1N (stereo not drawn) [Compound 4, 3-(2-Aminophenyl)-2-(4-diethylaminobutyl)isoindolin-1-one]	47	> 100	200	1.25	–
